Results reported in patent publication US20210030726A1 (MOUNT TAM THERAPEUTICS, INC., priority 2018, published 2021).
Several values for one entry are separate records, joined by “and”; a condition that tells them apart may be missing. Equal values may be shown once. Read-outs that look alike come from different tables or passages of the source.

Tests used:
Assay type in all cases: in vivo
[1] = test system: 6-OHDA injected mice; test: 6-OHDA cylinder test (motor performance); settings: 10 mg/kg, three days pre-treatment before 6-OHDA (80 μg); seven day test
Description: The data presented in FIG. 2B as mean and standard error of the mean (SEM), for a seven day test. Statistical analyses as compared to baseline mice were performed using the one-way Anova test (*: p<0.05). […] Data is presented as mean and SEM. Statistical analyses were performed using one-way Anova test (*: p<0.05; ***: p<0.001. n.s.: not significant.)

[2] = Whole blood concentrations after IP administration to mice (LC-MS/MS); settings: for concentration at 1 h: Day 3, 1.00 hrs; for concentration at 24 h: Day 3, 24.0 hrs
Description: These determinations were made using protein precipitation, liquid chromatography (LC), and mass spectrometry (MS/MS). Ten μl aliquots of whole blood and matrix calibration standards were distributed in a 96-well plate; 10 μl aliquots of blank matrix for matrix blanks and control blanks were included as controls. Ten μl of water was added to each sample followed by vortexing. […] This was followed by a five-minute vortex at >3500 rpm. One hundred fifty μl of the resultant supernatant was then transferred to a new 96-well plate and the samples blown to dryness at 35° C. […]

[3] = test system: 6-OHDA injected mice; test: Anti-TH immunohistochemistry, 6-OHDA-induced TH+ neuronal loss in SN; settings: 10 mg/kg
Description: (§1) Immunohistochemistry analysis using anti-tyrosine hydroxylase (TH) antibody was also performed to quantify 6-OHDA-induced neuronal loss in mice injected with 6-OHDA and non-injected (control) sides of the brain. […] FIG. 4B presents the mean and standard error of the mean (SEM) as well as statistical analysis of the results. […] This staining data was confirmed by staining for TH protein expression in the 6-OHDA-treated striatum.

[4] = Brain concentrations after IP administration to mice (LC-MS/MS of brain homogenates); settings: for Concentration in Mouse Brain, individual animals / concentration at 24 h: Day 3, 24.0 hrs; for Concentration in Mouse Brain, individual animals: Animal ID 1-3; for concentration at 24 h: mouse, brain, ip
Description: To carry out these assays using brain homogenates, 20 uL of samples and matrix calibration standards into wells of a 96-well plate, and 10 uL of blank matrix allocated for matrix blanks and control blanks. 160 uL internal standard was then added to all samples except matrix blanks, and 160 uL ACN added to matrix blanks. Samples were then vortexed for 5 minutes and centrifuge for 5 minutes at >3500 rpm. 150 uL of the supernatant was then transferred to a new 96-well plate, and the plates blown down to dryness at 35° C., reconstituted with 90 uL of 70:30 water:acetonitrile (ACN) solution, covered and vortexed prior to analysis. LC and MS conditions were the same as described above for the whole blood analysis.

[5] = test system: 6-OHDA injected mice; test: Anti-TH immunohistochemistry, 6-OHDA-induced striatal denervation; settings: 10 mg/kg
Description: Immunohistochemistry analysis using anti-tyrosine hydroxylase (TH) antibody was performed in mouse midbrain sections to quantify 6-OHDA-induced striatal denervation in mice injected with 6-OHDA and non-injected (control) sides of the brain. […] In contrast, both the 6-OHDA/rapamycin-treated and the 6-OHDA/Formula I-treated sides of the brain show increased staining with the anti-TH antibody, as indicated by the dark shading in those figures. FIG. 3B presents the mean and standard error of the mean (SEM) of the integrated density of anti-TH antibody staining in the striatum, as well as statistical analysis of the results for the groups of mice.

[6] = test system: 6-OHDA injected mice; test: TH protein expression in 6-OHDA-treated striatum; settings: 3 mg/kg, two-day pre-treatment
Description: as §1

[7] = 2 mg/kg or 10 mg/kg IP QD for three days
[8] = mouse, whole blood, intraperitoneal, 10 mg/kg, 10 mg/kg IP QD x 3 days, Animal ID 4-6, read-out: Concentration in Mouse Whole Blood, individual animals
[9] = mouse, whole blood, intraperitoneal, 10 mg/kg, 10 mg/kg IP QD x 3 days, read-out: Concentration in Mouse Whole Blood, Mean

Compound: CO[C@H]1C[C@@H]2CC[C@@H](C)[C@@](O)(O2)C(=O)C(=O)N2CCCC[C@H]2C(=O)O[C@H]([C@H](C)C[C@@H]2C[C@@H]3C[C@H]2C[C@H]3O)CC(=O)[C@H](C)/C=C(\C)[C@@H](O)[C@@H](OC)C(=O)[C@H](C)C[C@H](C)/C=C/C=C/C=C/1C [Formula I, 37R-hydroxynorbornylrapamycin]
- Contralateral touches, percent total touches (FIG. 2B) [1]: outperformed rapamycin and the vehicle control by bringing the number of touches closer to that of baseline mice
- Whole blood exposure (in words) [2, 7]: sufficient concentrations in whole blood over time
- Concentration in Mouse Whole Blood, individual animals ([2]; 10 mg/kg IP QD x 3 days, Day 2, 1.00 hrs, Animal ID 4-6): AQL (Original value above quantitation limit (1000 ng/mL))
- Concentration in Mouse Whole Blood, individual animals ([2]; 10 mg/kg IP QD x 3 days, Day 2, 6.00 hrs, Animal ID 4-6): AQL (Original value above quantitation limit (1000 ng/mL))
- concentration at 1 h [2, 8]: 2890 ng/mL
- concentration at 1 h [2, 9]: 3200 ng/mL
- concentration at 2 h ([2]; mouse, whole blood, intraperitoneal, 10 mg/kg, 10 mg/kg IP QD x 3 days, Day 3, 2.00 hrs): 1900 ng/mL
- concentration at 6 h ([2]; mouse, whole blood, intraperitoneal, 10 mg/kg, 10 mg/kg IP QD x 3 days, Day 3, 6.00 hrs): 1380 ng/mL
- concentration at 24 h [2, 8]: 292 ng/mL
- concentration at 24 h [2, 9]: 372 ng/mL
- 6-OHDA-induced neuronal loss vs vehicle control (TH-positive somas in SN, FIG. 4A) [3]: decreased 6-OHDA-induced neuronal loss as compared to vehicle control
- Brain exposure (in words) [4, 7]: sufficient concentrations in brain over time
- Concentration in Mouse Brain, individual animals ([4]; Group 1 (2 mg/kg) IP QD x 3 days, 2 mg/kg): 31.1 ng/g and 39.2 ng/g and 68.1 ng/g
- Concentration in Mouse Brain, individual animals ([4]; Group 2 (10 mg/kg) IP QD x 3 days, 10 mg/kg): 140 ng/g (2×) and 299 ng/g
- concentration at 24 h ([4]; 2 mg/kg, Group 1 (2 mg/kg) IP QD x 3 days): 46.1 ng/g
- concentration at 24 h ([4]; 10 mg/kg, Group 2 (10 mg/kg) IP QD x 3 days): 193 ng/g
- 6-OHDA-induced striatal denervation vs rapamycin (FIG. 3A) [5]: also decreased 6-OHDA-induced denervation as compared to rapamycin
- 6-OHDA-induced striatal denervation vs vehicle control (TH integrated density, FIG. 3A) [5]: decreased 6-OHDA-induced denervation as compared to vehicle control
- TH protein expression in 6-OHDA-treated striatum (FIGS. 4C-4F) [6]: non-statistically significant difference
